From patent US20070179121A1, “Method of treating pediatric patients with corticosteroids” (priority 2006, published 2007)

Experiments:
Format in all cases: in vivo, human (pediatric patients)
[1] = Skin safety evaluations: signs and symptoms of skin atrophy; settings: for Patients who showed new signs of skin atrophy at Week 2 not present at Baseline: 5/62
Description: (§1) Patients who met the inclusion/exclusion criteria were randomized to receive topical fluocinonide either qd or bid. Patients/guardians were instructed to apply a thin layer of the study product to all treatable areas once or twice daily for 14 days. If the areas to be treated were hairy, patients/guardians were instructed to part the hair to allow direct contact between the study product and the lesion. Patients/guardians were also instructed not to apply study product to lesions of the face, groin, perianal area, and axillae. At the end of Weeks 1, 2, and 4, patients returned to the study site in order for the investigator to perform designated evaluations, review treatment compliance and concomitant therapy, and to collect information regarding adverse events.
Specific skin safety evaluations were performed at each study visit with regard to all treated lesions by noting the presence or absence of the following 8 signs and symptoms of skin atrophy: telangiectasia, transparency, loss of elasticity, loss of normal skin markings, thinning, striae, pigmentation changes, and bruising.

[2] = Efficacy: investigator rating of atopic dermatitis severity; settings: for Patients who continued to show an improvement of clear or almost clear compared to Baseline: 2-week follow-up visit
Description: as §1
Efficacy was assessed by observing the change in the severity of atopic dermatitis from Baseline to Week 2 and Week 4. A disease exacerbation requiring more aggressive treatment than previously used was considered an adverse event.
The sole efficacy variable in the study was an investigator rating of skin disease severity performed at Screening, at end of treatment, and at a follow-up visit 4 weeks after the start of study treatment. Fluocinonide administered either qd or bid appears to be effective against atopic dermatitis in children aged 3 months to 17 years. In each of the 4 cohorts of this study, more than 90% of the patients in both the fluocinonide qd and bid group were rated by the investigator as showing an improvement in their disease status or as clear or almost clear of disease at the end of the treatment period. The qd regimen appeared to be as effective as the bid regimen across all age groups.

[3] = Treatment-emergent adverse events
Description: as §1
Adverse events were coded using MedDRA terminology (a standard dictionary of terms used to clarify adverse events) and were described according to their intensity, duration and relationship to the study product.

## CC(=O)OCC(=O)[C@@]12OC(C)(C)O[C@@H]1C[C@H]1[C@@H]3C[C@H](F)C4=CC(=O)C=C[C@]4(C)[C@@]3(F)[C@@H](O)C[C@@]12C [Fluocinonide, pregna-1,4-diene-3,20-dione,21-(acetyloxy)-6,9-difluoro-11-hydroxy-16, 17-[(1-methylethylidene)bis(oxy)]-,(6α., 11β,16α)-]
[1]; Cohort 1 (12-<18), bid
  Number (%) of patients who showed new signs at Week 2 not present at Baseline: 2 (12.5) Number (%)
[1]; Cohort 1 (12-<18), qd
  Number (%) of patients who showed new signs at Week 2 not present at Baseline: 2 (13.3) Number (%)
[1]; Cohort 2 (6-<12), bid
  Number (%) of patients who showed new signs at Week 2 not present at Baseline: 1 (6.3) Number (%)
[1]; Cohort 2 (6-<12), qd
  Number (%) of patients who showed new signs at Week 2 not present at Baseline: 0 Number (%)
[1]; Cohort 3 (2-<6), bid
  Number (%) of patients who showed new signs at Week 2 not present at Baseline: 0 Number (%)
[1]; Cohort 3 (2-<6), qd
  Number (%) of patients who showed new signs at Week 2 not present at Baseline: 1 (6.7) Number (%)
[1]; Cohort 4 (3 months to <2 year), bid
  Number (%) of patients who showed new signs at Week 2 not present at Baseline: 2 (13.3) Number (%)
[1]; Cohort 4 (3 months to <2 year), qd
  Number (%) of patients who showed new signs at Week 2 not present at Baseline: 2 (12.5) Number (%)
[1]; bid treatment group overall
  Patients who showed new signs of skin atrophy at Week 2 not present at Baseline: 8.1%
[1]; qd treatment group overall
  Patients who showed new signs of skin atrophy at Week 2 not present at Baseline: 8.1%
[2]; each dosage group in Cohort 1 and Cohort 3
  Patients who continued to show an improvement of clear or almost clear compared to Baseline: > 80%
[2]; each dosage group in Cohort 2
  Patients who continued to show an improvement of clear or almost clear compared to Baseline: > 70%
[2]; each dosage group in Cohort 4
  Patients who continued to show an improvement of clear or almost clear compared to Baseline: > 90%
[2]; end of treatment period vs Baseline, Cohort 1 and Cohort 2, bid
  Patients rated as showing an improvement in disease status or as clear or almost clear of disease: > 90%
[2]; end of treatment period vs Baseline, Cohort 1 and Cohort 2, qd
  Patients rated as showing an improvement in disease status or as clear or almost clear of disease: all of the patients
[2]; end of treatment period, Cohorts 3 and 4, both qd and bid groups
  Patients rated as showing an improvement in disease status or as clear or almost clear of disease: > 90%
[2]; end of treatment period, each of the 4 cohorts, both qd and bid group
  Patients rated as showing an improvement in disease status or as clear or almost clear of disease: more than 90%
[3]; Cohort 1, bid
  Burning Sensation NOS: 2 (11.8) Number (%)
  Dermatitis diaper: 0 (0) Number (%)
  Folliculitis: 1 (5.9) Number (%)
  Gastroenteritis NOS: 0 (0) Number (%)
  Headache: 3 (17.6) Number (%)
  Pain NOS: 2 (11.8) Number (%)
  Pyrexia: 0 (0) Number (%)
  Total no. of patients with AEs: 9 (52.9) Number (%)
  Upper respiratory tract infection: 0 (0) Number (%)
[3]; Cohort 1, qd
  Burning Sensation NOS: 0 (0) Number (%)
  Dermatitis diaper: 0 (0) Number (%)
  Folliculitis: 2 (12.5) Number (%)
  Gastroenteritis NOS: 0 (0) Number (%)
  Headache: 1 (6.3) Number (%)
  Pain NOS: 0 (0) Number (%)
  Pyrexia: 0 (0) Number (%)
  Total no. of patients with AEs: 6 (37.5) Number (%)
  Upper respiratory tract infection: 0 (0) Number (%)
[3]; Cohort 2, bid
  Burning Sensation NOS: 0 (0) Number (%)
  Dermatitis diaper: 0 (0) Number (%)
  Folliculitis: 0 (0) Number (%)
  Gastroenteritis NOS: 0 (0) Number (%)
  Headache: 0 (0) Number (%)
  Pain NOS: 0 (0) Number (%)
  Pyrexia: 0 (0) Number (%)
  Total no. of patients with AEs: 6 (37.5) Number (%)
  Upper respiratory tract infection: 1 (6.3) Number (%)
[3]; Cohort 2, qd
  Burning Sensation NOS: 0 (0) Number (%)
  Dermatitis diaper: 0 (0) Number (%)
  Folliculitis: 1 (6.3) Number (%)
  Gastroenteritis NOS: 0 (0) Number (%)
  Headache: 0 (0) Number (%)
  Pain NOS: 1 (6.3) Number (%)
  Pyrexia: 0 (0) Number (%)
  Total no. of patients with AEs: 4 (25.0) Number (%)
  Upper respiratory tract infection: 0 (0) Number (%)
[3]; Cohort 3, bid
  Burning Sensation NOS: 0 (0) Number (%)
  Dermatitis diaper: 0 (0) Number (%)
  Folliculitis: 0 (0) Number (%)
  Gastroenteritis NOS: 0 (0) Number (%)
  Headache: 0 (0) Number (%)
  Pain NOS: 0 (0) Number (%)
  Pyrexia: 0 (0) Number (%)
  Total no. of patients with AEs: 2 (13.3) Number (%)
  Upper respiratory tract infection: 0 (0) Number (%)
[3]; Cohort 3, qd
  Burning Sensation NOS: 0 (0) Number (%)
  Dermatitis diaper: 0 (0) Number (%)
  Folliculitis: 0 (0) Number (%)
  Gastroenteritis NOS: 0 (0) Number (%)
  Headache: 0 (0) Number (%)
  Pain NOS: 0 (0) Number (%)
  Pyrexia: 0 (0) Number (%)
  Total no. of patients with AEs: 3 (20) Number (%)
  Upper respiratory tract infection: 0 (0) Number (%)
[3]; Cohort 4, bid
  Burning Sensation NOS: 0 (0) Number (%)
  Dermatitis diaper: 0 (0) Number (%)
  Folliculitis: 0 (0) Number (%)
  Gastroenteritis NOS: 0 (0) Number (%)
  Headache: 0 (0) Number (%)
  Pain NOS: 0 (0) Number (%)
  Pyrexia: 2 (13.3) Number (%)
  Total no. of patients with AEs: 7 (46.7) Number (%)
  Upper respiratory tract infection: 1 (6.7) Number (%)
[3]; Cohort 4, qd
  Burning Sensation NOS: 0 (0) Number (%)
  Dermatitis diaper: 2 (12.5) Number (%)
  Folliculitis: 0 (0) Number (%)
  Gastroenteritis NOS: 2 (12.5) Number (%)
  Headache: 0 (0) Number (%)
  Pain NOS: 0 (0) Number (%)
  Pyrexia: 2 (12.5) Number (%)
  Total no. of patients with AEs: 8 (50.0) Number (%)
  Upper respiratory tract infection: 2 (12.5) Number (%)
[3]; all treated patients, 45 of 126
  Patients who reported at least one treatment-emergent adverse event (TEAE): 35.7%
[3]; whole study
  Deaths or other serious adverse events: No deaths or other serious adverse events
